# Reference: PubChem BioAssay AID192 (DTP/NCI, 2004)
# Inconclusive results and toxic doses are left out.
# Tested on: BDF1 mice, B16 melanoma ip, median survival T/C
# Experiment: NCI In Vivo Anticancer Drug Screen. Data for tumor model B16 Melanoma (intraperitoneal) in B6D2F1 (BDF1) mice
# Settings: endpoint: median survival time, higher = longer survival
# How it was run: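 Compounds were tested in mice carrying transplantable tumors. Survival or tumor size was recorded, and each value is the treated-group measurement (T) divided by that of the vehicle-treated control group (C).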
# [1] = dose: 3.12 mg/kg/injection, schedule: Q01DX009 (ip), vehicle: saline
# [2] = dose: 6.25 mg/kg/injection, schedule: Q01DX009 (ip), vehicle: saline
# [3] = dose: 12.5 mg/kg/injection, schedule: Q01DX009 (ip), vehicle: saline
# [4] = dose: 25.0 mg/kg/injection, schedule: Q01DX009 (ip), vehicle: saline
# [5] = dose: 50.0 mg/kg/injection, schedule: Q01DX009 (ip), vehicle: saline
# [6] = dose: 25.0 mg/kg/injection, schedule: Q04DX003 (ip), vehicle: saline with Tween-80
# [7] = dose: 100.0 mg/kg/injection, schedule: Q01DX009 (ip), vehicle: Klucel (hydroxypropylcellulose) (HPC)
# [8] = dose: 200.0 mg/kg/injection, schedule: Q01DX009 (ip), vehicle: Klucel (hydroxypropylcellulose) (HPC)
# [9] = dose: 400.0 mg/kg/injection, schedule: Q01DX009 (ip), vehicle: Klucel (hydroxypropylcellulose) (HPC)
# [10] = dose: 100.0 mg/kg/injection, schedule: Q01DX009 (ip), vehicle: saline
# [11] = dose: 200.0 mg/kg/injection, schedule: Q01DX009 (ip), vehicle: saline
# [12] = dose: 400.0 mg/kg/injection, schedule: Q01DX009 (ip), vehicle: saline
# [13] = dose: 12.5 mg/kg/injection, schedule: Q01DX009 (ip), vehicle: saline with Tween-80
# [14] = dose: 25.0 mg/kg/injection, schedule: Q01DX009 (ip), vehicle: saline with Tween-80
# [15] = dose: 50.0 mg/kg/injection, schedule: Q01DX009 (ip), vehicle: saline with Tween-80
# [16] = dose: 100.0 mg/kg/injection, schedule: Q01DX009 (ip), vehicle: saline with Tween-80
# [17] = dose: 200.0 mg/kg/injection, schedule: Q01DX009 (ip), vehicle: saline with Tween-80
# [18] = dose: 1.56 mg/kg/injection, schedule: Q01DX009 (ip), vehicle: saline
# [19] = dose: 400.0 mg/kg/injection, schedule: Q01DX009 (ip), vehicle: saline with Tween-80
# [20] = dose: 6.25 mg/kg/injection, schedule: Q01DX009 (ip), vehicle: Klucel (hydroxypropylcellulose) (HPC)
# [21] = dose: 12.5 mg/kg/injection, schedule: Q01DX009 (ip), vehicle: Klucel (hydroxypropylcellulose) (HPC)
# [22] = dose: 25.0 mg/kg/injection, schedule: Q01DX009 (ip), vehicle: Klucel (hydroxypropylcellulose) (HPC)
# [23] = dose: 50.0 mg/kg/injection, schedule: Q01DX009 (ip), vehicle: Klucel (hydroxypropylcellulose) (HPC)
# [24] = dose: 25.0 mg/kg/injection, schedule: Q04DX003 (ip), vehicle: saline
structure (smiles),measurement,setting,value
CC(N)Cc1ccc2c(c1)OCO2 (stereo not given),T/C,[1],119 % of control
same,T/C,[2],116 % of control
same,T/C,[3],102 % of control
same,T/C,[4],108 % of control
same,T/C,[5],116 % of control
Nc1nc(N)c2c(Cl)c(CNc3ccc(Cl)c(Cl)c3)ccc2n1,T/C,"dose: 0.5 mg/kg/injection, schedule: Q01DX009 (ip), vehicle: saline with Tween-80",98 % of control
same,T/C,"dose: 1.0 mg/kg/injection, schedule: Q01DX009 (ip), vehicle: saline with Tween-80",96 % of control
same,T/C,"dose: 2.0 mg/kg/injection, schedule: Q01DX009 (ip), vehicle: saline with Tween-80",113 % of control
same,T/C,"dose: 4.0 mg/kg/injection, schedule: Q01DX009 (ip), vehicle: saline with Tween-80",107 % of control
O=C(O)CC(Br)C(=O)c1ccccc1 (stereo not given),T/C,"dose: 12.5 mg/kg/injection, schedule: Q04DX003 (ip), vehicle: saline with Tween-80",93 % of control
same,T/C,[6],86 % of control
same,T/C,"dose: 50.0 mg/kg/injection, schedule: Q04DX003 (ip), vehicle: saline with Tween-80",88 % of control
Cc1cccc(NC(=O)c2cccc(C(=O)Nc3cccc(C)c3C)c2)c1C,T/C,[7],100 % of control
same,T/C,[8],90 % of control
same,T/C,[9],86 % of control
CC(O)CN1CC(C)OC(C)C1 (stereo not given),T/C,[10],97 % of control
same,T/C,[11],90 % of control
same,T/C,[12],97 % of control
CCCCCCOC(CN(C)C)C(Cl)(Cl)Cl (stereo not given),T/C,"dose: 12.5 mg/kg/injection, schedule: Q01DX009 (ip), vehicle: distilled water + Tween-80",100 % of control
same,T/C,[13],101 % of control
same,T/C,"dose: 25.0 mg/kg/injection, schedule: Q01DX009 (ip), vehicle: distilled water + Tween-80",97 % of control
same,T/C,[14],105 % of control
same,T/C,"dose: 50.0 mg/kg/injection, schedule: Q01DX009 (ip), vehicle: distilled water + Tween-80",94 % of control
same,T/C,[15],102 % of control
same,T/C,"dose: 100.0 mg/kg/injection, schedule: Q01DX009 (ip), vehicle: distilled water + Tween-80",89 % of control
same,T/C,[16],90 % of control
same,T/C,[17],89 % of control
[Cl][Ni][Cl].[NH-]CCN1CC1.[NH-]CCN1CC1,T/C,"dose: 0.78 mg/kg/injection, schedule: Q01DX009 (ip), vehicle: saline",98 % of control
same,T/C,[18],97 % of control
same,T/C,[1],90 % of control
CCCCCCCCSSCCCCCCCC,T/C,[16],108 % of control
same,T/C,[17],101 % of control
same,T/C,[19],98 % of control
O=C(NNc1ccccc1)c1ccccc1,T/C,[20],97 % of control
same,T/C,[21],97 % of control
same,T/C,[22],93 % of control
same,T/C,[23],91 % of control
COC(=O)C(CCCN)NC(=O)c1ccccc1 (stereo not given),T/C,[5],95 % of control
same,T/C,[10],102 % of control
same,T/C,[11],107 % of control
same,T/C,[12],97 % of control
N#CC1C(=O)c2ccccc2C1=O,T/C,[14],114 % of control
same,T/C,[15],106 % of control
[Cl][Pt+2][Br].[NH-]CC[NH-],T/C,"dose: 0.47 mg/kg/injection, schedule: Q04DX003 (ip), vehicle: saline with Tween-80",110 % of control
same,T/C,"dose: 0.5 mg/kg/injection, schedule: Q01DX009 (ip), vehicle: saline",110 % of control
same,T/C,"dose: 0.95 mg/kg/injection, schedule: Q04DX003 (ip), vehicle: saline with Tween-80",118 % of control
same,T/C,"dose: 1.0 mg/kg/injection, schedule: Q01DX009 (ip), vehicle: saline",110 % of control
same,T/C,"dose: 1.9 mg/kg/injection, schedule: Q04DX003 (ip), vehicle: saline with Tween-80",105 % of control
same,T/C,"dose: 2.0 mg/kg/injection, schedule: Q01DX009 (ip), vehicle: saline",110 % of control
CCOC(=O)C(NC(=O)C(Cc1ccc(N(CCCl)CCCl)cc1)NC(C)=O)C(C)C (stereo not given),T/C,[18],99 % of control
same,T/C,"dose: 3.13 mg/kg/injection, schedule: Q01DX009 (ip), vehicle: saline",98 % of control
same,T/C,[2],102 % of control
same,T/C,"dose: 12.5 mg/kg/injection, schedule: Q04DX003 (ip), vehicle: saline",105 % of control
same,T/C,[24],97 % of control
same,T/C,"dose: 50.0 mg/kg/injection, schedule: Q04DX003 (ip), vehicle: saline",102 % of control
CC(C)NNC(=O)C(C)O (stereo not given),T/C,[4],118 % of control
same,T/C,[5],102 % of control
same,T/C,[11],102 % of control
CSc1cc(=O)n2c3ccccc3c3ccnc1c32,T/C,"dose: 0.63 mg/kg/injection, schedule: Q01DX009 (ip), vehicle: saline with Tween-80",104 % of control
same,T/C,"dose: 1.25 mg/kg/injection, schedule: Q01DX009 (ip), vehicle: saline with Tween-80",110 % of control
same,T/C,"dose: 2.5 mg/kg/injection, schedule: Q01DX009 (ip), vehicle: saline with Tween-80",101 % of control
same,T/C,"dose: 5.0 mg/kg/injection, schedule: Q01DX009 (ip), vehicle: saline with Tween-80",108 % of control
O=C(Nc1ccc2c(c1)OCO2)O/N=C1\C(=O)Nc2ccccc21,T/C,"dose: 16.5 mg/kg/injection, schedule: Q04DX003 (ip), vehicle: saline with Tween-80",100 % of control
same,T/C,[14],109 % of control
same,T/C,[6],100 % of control
same,T/C,[24],153 % of control
same,T/C,"dose: 37.5 mg/kg/injection, schedule: Q04DX003 (ip), vehicle: saline with Tween-80",95 % of control
same,T/C,[15],104 % of control
same,T/C,[16],100 % of control
O=C(Nc1ccc(Cl)cc1)OCCN1CCOCC1,T/C,[16],110 % of control
same,T/C,[17],110 % of control
same,T/C,[19],97 % of control
CCC1CCCCN1C(=S)N/N=C(\C)c1ccccn1 (stereo not given),T/C,"dose: 6.25 mg/kg/injection, schedule: Q01DX009 (ip), vehicle: saline with Tween-80",96 % of control
same,T/C,[13],95 % of control
CC/C=C/c1cccc(OC)c1,T/C,[7],96 % of control
same,T/C,[8],96 % of control
same,T/C,[9],92 % of control
O=C(CBr)c1ccc(F)cc1,T/C,"dose: 3.12 mg/kg/injection, schedule: Q01DX009 (ip), vehicle: Klucel (hydroxypropylcellulose) (HPC)",106 % of control
same,T/C,[20],91 % of control
same,T/C,[21],99 % of control
Cc1ccc(S(=O)(=O)N(C)C)cc1N,T/C,[16],97 % of control
same,T/C,"dose: 100.0 mg/kg/injection, schedule: Q04DX003 (ip), vehicle: saline with Tween-80",100 % of control
same,T/C,[17],118 % of control
same,T/C,"dose: 200.0 mg/kg/injection, schedule: Q04DX003 (ip), vehicle: saline with Tween-80",102 % of control
same,T/C,[19],102 % of control
same,T/C,"dose: 400.0 mg/kg/injection, schedule: Q04DX003 (ip), vehicle: saline with Tween-80",100 % of control
Cc1cc([N+](=O)[O-])c(Cl)cc1NS(=O)(=O)c1ccccc1,T/C,[14],95 % of control
same,T/C,[15],93 % of control
same,T/C,[16],90 % of control
CNc1nc(NC)nc(NC)n1,T/C,[21],106 % of control
same,T/C,[22],118 % of control
same,T/C,[23],100 % of control
same,T/C,[7],109 % of control
COc1ccccc1NC(=O)Nc1cc(C)cc(C)n1,T/C,[16],94 % of control
same,T/C,[17],94 % of control
same,T/C,[19],89 % of control
COC(=O)c1ccccc1NC(=O)Nc1ccccc1,T/C,[7],110 % of control
same,T/C,[8],105 % of control
same,T/C,[9],99 % of control
IP(c1ccccc1)(c1ccccc1)(c1ccccc1)N1C2CCCCC21 (stereo not given),T/C,"dose: 0.15 mg/kg/injection, schedule: Q01DX009 (ip), vehicle: saline",115 % of control
same,T/C,"dose: 0.3 mg/kg/injection, schedule: Q01DX009 (ip), vehicle: saline",111 % of control
same,T/C,"dose: 0.6 mg/kg/injection, schedule: Q01DX009 (ip), vehicle: saline",111 % of control
same,T/C,"dose: 1.2 mg/kg/injection, schedule: Q01DX009 (ip), vehicle: saline",92 % of control
O=C(Nc1ccccc1F)C(c1ccccc1)c1ccccc1,T/C,[13],101 % of control
same,T/C,[14],95 % of control
same,T/C,[15],95 % of control
same,T/C,[8],86 % of control
CCCCCCCCCCCCOc1ccccn1,T/C,[8],88 % of control
same,T/C,[9],86 % of control
CC(N)Cc1ccccc1 (stereo not given),T/C,[1],105 % of control
same,T/C,[2],100 % of control
same,T/C,[3],105 % of control
same,T/C,[4],97 % of control
same,T/C,[5],97 % of control
same,T/C,[10],95 % of control
